The numbers were not newly measured in patent US10071030B2, “Carrier comprising non-neutralised tocopheryl phosphate” (Phosphagenics Limited, priority 2010, dated 2018), which cites them from elsewhere.

Molecules are shown by their SMILES.

The conditions of this data set: from dietary sources.

As for `COC1=C(OC)C(=O)C(C/C=C(\C)CC/C=C(\C)CC/C=C(\C)CC/C=C(\C)CC/C=C(\C)CC/C=C(\C)CC/C=C(\C)CC/C=C(\C)CC/C=C(\C)CCC=C(C)C)=C(C)C1=O` [CoQ10, ubiquinone], the “bioavailable fraction of CoQ10” value is given as 5 to 10%.
